This is an account of results in patent publication US10933064B2, “Crystalline forms of 5-bromo-2,6-di(1H-pyrazol-1-yl)pyrimidin-4-amine and new salts” (Novartis AG, priority 2017, dated 2021).

Series [1] is described as follows: Stability when blended with excipients. The note with it: four excipients (gelatin, HPMC, wet granulation mixture, dry blended mixture), 50° C./75% RH. The series is classed as physicochemical.
The nature of series [2]: Hygroscopicity, water sorption-desorption isotherm (DVS). It is filed as physicochemical. From the text:
Crystalline form F is non-hygroscopic.

Series [3] can be described thus: Intrinsic dissolution rate. The series is classed as physicochemical.
A short description of series [4]: Solubility in aqueous buffers and bio-relevant media. Particulars: the salt dissociates.
A short description of series [5]: Thermal stability of the crystalline form on heating and cooling (XRPD). It is filed as physicochemical. The note with it: heating to 220° C. (melt) then cooling to 30° C.
A short description of series [6]: Physical stability on compression (XRPD). The note with it: 5 minutes at 0.5 ton, 0.8 cm diameter disc. The series is classed as physicochemical. Here is the method:
The crystallinity of form F was evaluated by XRPD after compression for 5 minutes at 0.5 ton with 0.8 cm diameter disc.

A short description of series [7]: Granulation simulation experiments (XRPD, DSC). The series is classed as physicochemical. The note with it: ground at 25° C. Here is the method: The physical stability of crystalline form F was also evaluated in granulation simulation experiments. In these experiments granulating solvent was added dropwise to the crystalline form F until the solid is wetted sufficiently. The mixture was then ground in a mortar/pestle at room temperature (25° C. for 2-3 minutes) between each addition. The crystallinity of the material (post-grinding) was re-evaluated by XRPD and DSC.

Series [8] can be described thus: Phase change on exposure to humidity. The series is classed as physicochemical.
The conditions of series [9]: 1 week.
For series [10] the following is noted: 1 week, 0.1 %, pH 1.2.
A further series in a line: physchem. Particulars: aqueous buffer.

Converted amounts (≈) assume the structure as drawn.

Consider `Nc1nc(-n2cccn2)nc(-n2cccn2)c1Br` [Form C, 5-bromo-2,6-di(1H-pyrazol-1-yl)pyrimidin-4-amine], for which, in series [1], the “degradation when blended with excipients” value is “about 1%”. The hygroscopicity result in series [2] (relative humidity above 70%) was “very hygroscopic”. The intrinsic dissolution in series [3] (0.01N HCl pH=2) worked out at 0.0592 mg/cm^2/min; in series [3] (acetate buffer pH 4.7) it was 0.0264 mg/cm^2/min; in series [3] (phosphate buffer pH 6.8) it was 0.0277 mg/cm^2/min. The “solubility compared with free form F” value in series [4] is “does not show any better solubility than the free form F”.
As usually defined, the solubility is how much of the substance goes into solution per volume. As for `Nc1nc(-n2cccn2)nc(-n2cccn2)c1Br` [Form F, 5-bromo-2,6-di(1H-pyrazol-1-yl)pyrimidin-4-amine], the “crystalline form after heating and cooling” value in [5] is reported as “remains unchanged”. Further, in series [6], the “form change after compression” value is recorded as “no form change”. In addition, the “form change after granulation simulation” value in [7] (ethanol as granulation solvent) and in [7] (water as granulation solvent) was “no form change” each time. Also, the hygroscopicity result in [2] (DVS, 25° C.) was “non-hygroscopic”. Moreover, the moisture absorbed result in [2] (DVS, up to 90% relative humidity, 25° C.) was “less than 0.2%”. Besides, the “phase change on exposure to humidity” value in series [8] is recorded as “little to no phase change”. For the same compound, the intrinsic dissolution in series [3] (0.01N HCl pH=2, listed as form F) amounted to 0.0115 mg/cm^2/min; in series [3] (acetate buffer pH 4.7, listed as form F) it was 0.0085 mg/cm^2/min; in series [3] (phosphate buffer pH 6.8, listed as form F), 0.0084 mg/cm^2/min. Besides, the degradation in bulk entry in series [9] was “less than 1%”. For the same compound, in [10], the “degradation in buffer solution” value is 1%. For the same compound, in series [10], the “degradation in buffer solutions” value is on record as “less than 0.5%”. The compound further displayed a solubility in “physchem” of around 100 µg/mL (≈ 327 µM).
